Measurements as given in patent US20220281794A1, “METHOD OF THE ISOLATING CHLOROSESAMONE OR CHLOROSESAMONE-CONTAINING FRACTION FROM ROOTS OF GENUS SESAMUM, AND APPLICATION OF THE FRACTION THEREOF” (BRILLIANT BIOMEDICAL CORP., priority 2019, published 2022).

Assays:
Type in all cases: cell-based
[1] = system: 4T1 mouse breast cancer cell and HepG2 human liver cancer cell; assay: cell viability assay, summary over 4T1 and HepG2; conditions: range over 4T1 and HepG2 cells
Experimental: (§1) In the first embodiment, MDA-MB-231, a human breast cancer cell and 4T1, a mouse breast cancer cell, Huh-7 and HepG2, a human liver cancer cell and BNL-1-MEA, a mouse liver cancer cell, HL60, a human blood cancer cell and WEHI-3, a mouse blood cancer cell , and
(§2) A549, a human lung cancer cell and LLC1, a mouse lung cancer cell are used for the experiments. A 96-well plate is used for cell culture. In the test, cells are treated with 0, 25, 50, 100, 200, 400 μg/mL of D2 fraction for 24 hours, and then subjected to cell viability assay (or MTT assay). In cell viability assay, cells are washed with 1X PBS once and treated with 0.5 mg/mL of MTT (3-(4,5-Dimethylthiazol-2-yl)-2,5-diphenyltetrazolium bromide). After incubation at 37 degrees Centigrade for 1-2 hours MTT is removed and cells are washed with 1X PBS once, followed by dimethyl sulfoxide (DMSO) to dissolve […]. Finally optical density (OD) of 570 nm is detected and medium only is used as a 100% cell viability.

[2] = system: HepG2 human liver cancer cell; assay: cell viability assay (MTT assay), HepG2; conditions: HepG2 cells, 24 hours treatment stated for D2 fraction
Experimental: as §1, §2

[3] = system: 4T1 mouse breast cancer cell; assay: cell viability assay (MTT assay), 4T1; conditions: 4T1 cells, 24 hours treatment stated for D2 fraction
Experimental: as §1, §2

## CC(C)=CCC1=C(Cl)C(=O)c2c(O)ccc(O)c2C1=O [chlorosesamone]
[1]
  50% inhibition concentration of chlorosesamone (range): 0.8 to 1.3 µg/mL
[2]
  50% inhibition concentration in HepG2 human liver cancer cell: 0.8 µg/mL
[3]
  50% inhibition concentration in 4T1 mouse breast cancer cell: 1.3 µg/mL
